Results from patent publication US6916812B2, “Alpha-aminoamide derivatives as melanocortin agonists” (Bristol-Myers Squibb Company, priority 2001, dated 2005).
Read-outs that look alike come from different tables or passages of the source.

Target: T1, cloned human MC4R (Homo sapiens, UniProt P32245)
T1 construct: made in house; host or cells: Hi5 insect cells (baculovirus infection); membrane preparation
Test: Membrane binding assay: competitive inhibition of [125I]NDP-α-MSH binding
Conditions: for inhibition at 10 µM: read-out: Displacement Rate (%) (at 10 μM); for IC50: read-out: MC4R IC50
Protocol: Hi5 cells are infected using the following protocol: Cells at a density of 1×10^6 cells/mL are spun down at 1000 rpm (Beckman GS-6KR centrifuge) for 10 minutes. Cells are resuspended in 10% of their original volume in a sterile 50 mL conical centrifuge tube wrapped with aluminum foil. Virus is added at a Multiplicity of Infection (MOI) of 3 and incubated for 1 hour at room temperature with gentle shaking. […] Cells are spun down in 50 mL conical centrifuge tubes at 1000 rpm for 10 minutes. Each of the resulting pellets are resuspended in 10 mL of cold (4° C.) membrane buffer (25 mM HEPES, pH 7.4, 140 mM NaCl, 1.2 mM MgCl2, 2.5 mM CaCl2, 10 μG/mL Aprotinin, 10 μG/mL Leupeptin) and Dounce homogenized using 10-12 strokes. […] The resulting pellet is resuspended in cold membrane buffer in a total of ¼ of the original volume by vortexing and aspiration using a syringe and 27 gauge needle. Protein content is determined (Bradford, Bio-Rad Protein Assay). Membranes are aliquoted in microcentrifuge tubes and quick frozen in liquid nitrogen. Store at −80° C. until use. The membrane binding buffer is composed of 25 mM HEPES, pH 7.4, 140 mM NaCl, 1.2 mM MgCl2, 2.5 mM CaCl2, 0.1% BSA. […] The mixture is filtered with Brandel Microplate 96 filter apparatus using 96-well GF/B filter presoaked in 1-% polyethyleneimine (Sigma). The filter is washed (4 times with a total of 1 mL per well) with cold wash buffer consisting of 20 mM HEPES, pH 7.4, 5 mM MgCl2. […] 100 μl of Wallac Optiphase Supermix scintillation fluid is added to each well. The top is sealed and the plates are shaken to insure that the filters are thoroughly soaked with fluid. […] Dose-response curves are fitted by […] analyses and IC50 values are calculated using ExcelFit.

[1] = at 10 μM, [125I]NDP-α-MSH displacement

T1 sequence (P32245 whole entry): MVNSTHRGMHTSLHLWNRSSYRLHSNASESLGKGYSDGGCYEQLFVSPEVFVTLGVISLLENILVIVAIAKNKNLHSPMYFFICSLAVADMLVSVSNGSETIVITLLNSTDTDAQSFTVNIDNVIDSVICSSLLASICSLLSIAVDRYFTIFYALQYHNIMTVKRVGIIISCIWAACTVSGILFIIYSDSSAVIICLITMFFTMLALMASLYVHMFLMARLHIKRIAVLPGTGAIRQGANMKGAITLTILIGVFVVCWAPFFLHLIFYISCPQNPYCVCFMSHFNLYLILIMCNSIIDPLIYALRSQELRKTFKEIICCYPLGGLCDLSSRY

Structure (SMILES)	inhibition at 10 µM [1] [%]	IC50 [µM]	inhibition at 10 µM [%]
N[C@@H](Cc1ccc(OCc2ccccc2)cc1)C(=O)N1CCCN(Cc2ccc(C(c3ccccc3)c3ccccc3)cc2)CC1 [Example 1]	91 to 100	< 1.5	–
N[C@@H](Cc1ccc(OCc2ccccc2)cc1)C(=O)N1CCCN(Cc2ccccc2Sc2ccc(Cl)cc2)CC1 [Example 2]	91 to 100	1.5 to 3	–
CCn1c2ccccc2c2cc(CN3CCCN(C(=O)[C@@H](N)Cc4ccc(OCc5ccccc5)cc4)CC3)ccc21 [Example 3]	91 to 100	< 1.5	–
N[C@@H](Cc1ccc(OCc2ccccc2)cc1)C(=O)N1CCCN(Cc2cccc(Oc3cc(Cl)cc(Cl)c3)c2)CC1 [Example 4]	91 to 100	< 1.5	–
N[C@@H](Cc1ccc(OCc2ccccc2)cc1)C(=O)N1CCCN(Cc2ccc(-c3ccc(Cl)cc3)o2)CC1 [Example 6]	91 to 100	1.5 to 3	–
N[C@@H](Cc1ccc(OCc2ccccc2)cc1)C(=O)N1CCCN(Cc2ccc(-c3ccccc3)cc2)CC1 [Example 8]	91 to 100	1.5 to 3	–
N[C@@H](Cc1ccc(OCc2ccccc2)cc1)C(=O)N1CCCN(Cc2cn(Cc3ccccc3)c3ccccc23)CC1 [Example 9]	91 to 100	< 1.5	–
N[C@@H](Cc1ccc(OCc2ccccc2)cc1)C(=O)N1CCCN(Cc2ccc3c(c2)Cc2ccccc2-3)CC1 [Example 10]	91 to 100	1.5 to 3	–
N[C@@H](Cc1ccc(OCc2ccccc2)cc1)C(=O)N1CCCN(Cc2ccc(/C=C/c3ccccc3)cc2)CC1 [Example 11]	91 to 100	< 1.5	–
N[C@@H](Cc1ccc(OCc2ccccc2)cc1)C(=O)N1CCCN(Cc2cc(OCc3ccccc3)cc(OCc3ccccc3)c2)CC1 [Example 12]	91 to 100	< 1.5	–
N[C@@H](Cc1ccc(OCc2ccccc2)cc1)C(=O)N1CCCN(Cc2ccc(OCc3ccccc3)cc2)CC1 [Example 13]	91 to 100	1.5 to 3	–
CCCCCCCCOc1ccc(CN2CCCN(C(=O)[C@@H](N)Cc3ccc(OCc4ccccc4)cc3)CC2)cc1 [Example 14]	91 to 100	< 1.5	–
COc1cc(CN2CCCN(C(=O)[C@@H](N)Cc3ccc(OCc4ccccc4)cc3)CC2)ccc1OCc1ccc([N+](=O)[O-])cc1 [Example 15]	91 to 100	1.5 to 3	–
N[C@@H](Cc1ccc(OCc2ccccc2)cc1)C(=O)N1CCCN(Cc2cccc(Oc3cccc(C(F)(F)F)c3)c2)CC1 [Example 16]	91 to 100	< 1.5	–
N[C@@H](Cc1ccc(OCc2ccccc2)cc1)C(=O)N1CCCN(Cc2ccc(Cl)c(Cl)c2)CC1 [Example 17]	91 to 100	1.5 to 3	–
Cc1ccc(S(=O)(=O)n2cc(CN3CCCN(C(=O)[C@@H](N)Cc4ccc(OCc5ccccc5)cc4)CC3)c3ccccc32)cc1 [Example 18]	91 to 100	< 1.5	–
N[C@@H](Cc1ccc(OCc2ccccc2)cc1)C(=O)N1CCCN(Cc2cccc(Oc3ccc(Cl)c(Cl)c3)c2)CC1 [Example 19]	91 to 100	< 1.5	–
N[C@@H](Cc1ccc(OCc2ccccc2)cc1)C(=O)N1CCCN(Cc2c3ccccc3cc3ccccc23)CC1 [Example 20]	–	> 3	91 to 100
N[C@@H](Cc1ccc(OCc2ccccc2)cc1)C(=O)N1CCCN(Cc2ccc(-c3cccc([N+](=O)[O-])c3)o2)CC1 [Example 21]	91 to 100	1.5 to 3	–
N[C@@H](Cc1ccc(OCc2ccccc2)cc1)C(=O)N1CCCN(Cc2ccccc2C(F)(F)F)CC1 [Example 22]	91 to 100	> 3	–
N[C@@H](Cc1ccc(OCc2ccccc2)cc1)C(=O)N1CCCN(CC(c2ccccc2)c2ccccc2)CC1 [Example 23]	91 to 100	> 3	–
CCOc1ccc(CN2CCCN(C(=O)[C@@H](N)Cc3ccc(OCc4ccccc4)cc3)CC2)c(OCC)c1C [Example 24]	91 to 100	< 1.5	–
N[C@@H](Cc1ccc(OCc2ccccc2)cc1)C(=O)N1CCCN(Cc2ccc(C(F)(F)F)cc2)CC1 [Example 25]	91 to 100	< 1.5	–
CC(C)(C)c1cc(CN2CCCN(C(=O)[C@@H](N)Cc3ccc(OCc4ccccc4)cc3)CC2)cc(C(C)(C)C)c1O [Example 26]	71 to 90	1.5 to 3	–
N[C@@H](Cc1ccc(OCc2ccccc2)cc1)C(=O)N1CCCN(Cc2ccc(OCc3ccc([N+](=O)[O-])cc3)cc2)CC1 [Example 27]	71 to 90	< 1.5	–

Structure (SMILES)	inhibition at 10 µM [1] [%]	IC50 [µM]	inhibition at 10 µM [%]
N[C@@H](Cc1ccc(OCc2ccccc2)cc1)C(=O)N1CCCN(Cc2ccc(C(F)(F)F)cc2F)CC1 [Example 28]	71 to 90	> 3	–
COc1cc(CN2CCCN(C(=O)[C@@H](N)Cc3ccc(OCc4ccccc4)cc3)CC2)ccc1OCc1ccccc1 [Example 29]	71 to 90	1.5 to 3	–
N[C@@H](Cc1ccc(OCc2ccccc2)cc1)C(=O)N1CCCN(C2CCc3ccccc3C2)CC1 (stereo partly shown) [Example 30]	–	> 3	71 to 90
COc1cc(OC)c(CN2CCCN(C(=O)[C@@H](N)Cc3ccc(OCc4ccccc4)cc3)CC2)cc1Br [Example 31]	71 to 90	1.5 to 3	–
CCCCCOc1ccc(CN2CCCN(C(=O)[C@@H](N)Cc3ccc(OCc4ccccc4)cc3)CC2)cc1 [Example 32]	71 to 90	< 1.5	–
N[C@@H](Cc1ccc(OCc2ccccc2)cc1)C(=O)N1CCCN(Cc2ccc(Oc3ccccc3)cc2)CC1 [Example 33]	71 to 90	1.5 to 3	–
N[C@@H](Cc1ccc(OCc2ccccc2)cc1)C(=O)N1CCCN(Cc2cc([N+](=O)[O-])ccc2Cl)CC1 [Example 34]	–	> 3	71 to 90
CCCCc1ccc(CN2CCCN(C(=O)[C@@H](N)Cc3ccc(OCc4ccccc4)cc3)CC2)cc1 [Example 35]	71 to 90	1.5 to 3	–
Cc1ccc(C)c(CN2CCCN(C(=O)[C@@H](N)Cc3ccc(OCc4ccccc4)cc3)CC2)c1 [Example 36]	71 to 90	> 3	–
N[C@@H](Cc1ccc(OCc2ccccc2)cc1)C(=O)N1CCCN(Cc2ccnc3ccccc23)CC1 [Example 37]	71 to 90	> 3	–
CCc1ccc(CN2CCCN(C(=O)[C@@H](N)Cc3ccc(OCc4ccccc4)cc3)CC2)cc1 [Example 38]	71 to 90	> 3	–
CC(C)(C)c1ccc(CN2CCCN(C(=O)[C@@H](N)Cc3ccc(OCc4ccccc4)cc3)CC2)cc1 [Example 39]	71 to 90	1.5 to 3	–
CCOc1cccc(CN2CCCN(C(=O)[C@@H](N)Cc3ccc(OCc4ccccc4)cc3)CC2)c1O [Example 40]	71 to 90	> 3	–
N[C@@H](Cc1ccc(OCc2ccccc2)cc1)C(=O)N1CCCN(C2CCC(c3ccccc3)CC2)CC1 (stereo partly shown) [Example 41]	71 to 90	> 3	–
N[C@@H](Cc1ccc(OCc2ccccc2)cc1)C(=O)N1CCCN(CCCc2ccccc2)CC1 [Example 42]	71 to 90	> 3	–
COc1ccc2ccccc2c1CN1CCCN(C(=O)[C@@H](N)Cc2ccc(OCc3ccccc3)cc2)CC1 [Example 43]	71 to 90	1.5 to 3	–
CC(Cc1cccc(C(F)(F)F)c1)N1CCCN(C(=O)[C@@H](N)Cc2ccc(OCc3ccccc3)cc2)CC1 (stereo partly shown) [Example 44]	71 to 90	1.5 to 3	–
CCc1ccc(CN2CCCN(C(=O)[C@@H](N)Cc3ccc(OCc4ccccc4)cc3)CC2)s1 [Example 45]	35 to 70	> 3	–
CCCCCCCN1CCCN(C(=O)[C@@H](N)Cc2ccc(OCc3ccccc3)cc2)CC1 [Example 46]	35 to 70	> 3	–
N[C@@H](Cc1ccc(OCc2ccccc2)cc1)C(=O)N1CCCN(Cc2cccc3ccccc23)CC1 [Example 47]	35 to 70	> 3	–
Cc1ccsc1CN1CCCN(C(=O)[C@@H](N)Cc2ccc(OCc3ccccc3)cc2)CC1 [Example 48]	35 to 70	> 3	–
CC(COc1ccccc1)N1CCCN(C(=O)[C@@H](N)Cc2ccc(OCc3ccccc3)cc2)CC1 (stereo partly shown) [Example 49]	35 to 70	> 3	–
CCOc1ccccc1CN1CCCN(C(=O)[C@@H](N)Cc2ccc(OCc3ccccc3)cc2)CC1 [Example 50]	35 to 70	> 3	–
N[C@@H](Cc1ccc(OCc2ccccc2)cc1)C(=O)N1CCCN(Cc2ccc3ccccc3c2)CC1 [Example 51]	35 to 70	> 3	–
N[C@@H](Cc1ccc(OCc2ccccc2)cc1)C(=O)N1CCCN(Cc2ccc(Cl)cc2Cl)CC1 [Example 52]	35 to 70	> 3	–
